Assay results taken from patent US20100004159A1, “SUBSTITUTED IMIDAZOLONE DERIVATIVES, PREPARATIONS AND USES” (GENFIT, priority 2006, published 2010).

Structure (SMILES)	melting point [°C]
CCCCC1=NC2(CCCC2)C(=O)N1Cc1ccc(C(=O)c2ccccc2OC(C)(C)C(=O)O)cc1 [Compound 7, 2-butyl-1-[[4-[(2-((1-carboxyl-1,1-dimethylmethyl)oxy)phenyl)carbonyl]phenyl]methyl]-4-spirocyclopentyl-1H-imidazol-5(4H)-one]	85 to 90
CCCCC1=NC2(CCCC2)C(=O)N1Cc1ccc(C(=O)c2ccc(OC(C)(C)C(=O)O)cc2)cc1 [Compound 9, 2-butyl-1-[[4-[(4-((1-carboxyl-1,1-dimethylmethyl)oxy)phenyl)carbonyl]phenyl]methyl]-4-spirocyclopentyl-1H-imidazol-5(4H)-one]	90 to 99
CCCCC1=NC2(CCCCC2)C(=O)N1Cc1ccc(-c2cc(OC(C)C(=O)O)ccc2F)cc1 (stereo not drawn) [Compound 57, 2-butyl-1-[(3′-((1-carboxy-1-methylmethyl)oxy)-6′-fluoro-biphenyl-4-yl)methyl]-4-spirocyclohexyl-1H-imidazol-5(4H)-one]	96
CCCCC1=NC(CC)(CC)C(=O)N1Cc1ccc(-c2cc(OC(C)(C)C(=O)O)ccc2F)cc1 [Compound 69]	62
CCCCC1=NC(CC)(CC)C(=O)N1Cc1ccc(-c2cccc(OC(C)C(=O)O)c2)cc1 (stereo not drawn) [Compound 66, 2-butyl-1-[(3′-((1-carboxy-1-methylmethyl)oxy)biphenyl-4-yl)methyl]-4,4-diethyl-1H-imidazol-5(4H)one]	186
CCCCC1=NC2(CCCC2)C(=O)N1Cc1ccc(Cc2ccc(OC(C)(C)C(=O)O)cc2)cc1 [Compound 31]	147 to 149
CCCCC1=NC2(CCCCC2)C(=O)N1Cc1ccc(-c2cc(OC(C)(C)C(=O)O)ccc2F)cc1 [Compound 60, 2-butyl-1-[(3′-((1-carboxy-1,1-dimethylmethyl)oxy)-6′-fluoro-biphenyl-4-yl)methyl]-4-spirocyclohexyl-1H-imidazol-5(4H)-one]	72
CCCCC1=NC2(CCCC2)C(=O)N1Cc1ccc(-c2cccc(OCC#N)c2)cc1 [Compound 23, 2-butyl-1-[(3′-(cyanomethoxy)biphenyl-4-yl)methyl]-4-spirocyclopentyl-1H-imidazol-5(4H)-one]	128 to 130
CCCCC1=NC2(CCCC2)C(=O)N1Cc1cccc(-c2ccc(OC(C)(C)C(=O)O)cc2)c1 [Compound 77, 2-butyl-1-[(4′-((1-carboxy-1,1-dimethylmethyl)oxy)biphenyl-3-yl)methyl]-4-spirocyclopentyl-1H-imidazol-5(4H)-one]	170
CCCCC1=NC2(CCCC2)C(=O)N1Cc1ccc(-c2cc(OC(C)(C)C(=O)O)ccc2CCC)cc1 [Compound 76, 2-butyl-1-[(3′-((1-carboxy-1,1-dimethylmethyl)oxy)-6′-propyl-biphenyl-4-yl)methyl]-4-spirocyclopentyl-1H-imidazol-5(4H)-one]	< 60
CCCCC1=NC2(CCCC2)C(=O)N1Cc1ccc(-c2cc(OC(C)(C)C(=O)O)ccc2CC(C)C)cc1 [Compound 87, 2-butyl-1-[(3∝-((1-carboxy-1,1-dimethylmethyl)oxy)-6′-isobutyl-biphenyl-4-yl)methyl]-4-spirocyclopentyl-1H-imidazol-5(4H )-one]	< 50
CCCC1=NC2(CCCC2)C(=O)N1Cc1ccc(-c2cccc(OC(C)(C)C(=O)O)c2)cc1 [Compound 16, 1-[(3′-((1-carboxy-1,1-dimethylmethyl)oxy)biphenyl-4-yl)methyl]-2-propyl-4-spirocyclopentyl-1H-imidazol-5(4H)-one]	134 to 190
CCCCC1=NC2(CCCC2)C(=O)N1Cc1ccc(-c2ccc([N+](=O)[O-])c(OC(C)(C)C(=O)O)c2)cc1 [Compound 95, 2-butyl-1-[(3′-((1-carboxy-1,1-dimethylmethyl)oxy)-4′-nitro-biphenyl-4-yl)methyl]-4-spirocyclopentyl-1H-imidazol-5(4H)-one]	< 50
CC(C)(Oc1cccc(-c2ccc(CN3C(=O)C4(CCCC4)N=C3C3CC3)cc2)c1)C(=O)O [Compound 29, 1-[(3′-((1-carboxy-1,1-dimethylmethyl)oxy)biphenyl-4-yl)methyl]-2-cyclopropyl-4-spirocyclopentyl-1H-imidazol-5(4H)-one]	175 to 177
CCCCC1=NC2(CCCC2)C(=O)N1CCc1ccc(OC(C)(C)C(=O)O)cc1 [Compound 3, 2-butyl-1-[2-(4-((1-carboxy-1,1-dimethylmethyl)oxy)phenyl)ethyl]-4-spirocyclopentyl-1H-imidazol-5(4H)-one]	50 to 53
CCCCC1=NC(c2ccccc2)C(=O)N1Cc1ccc(-c2cc(Br)ccc2OC(C)(C)C(=O)O)cc1 (stereo not drawn) [Compound 26, 1-[(5′-bromo-2′-((1-carboxy-1,1-dimethylmethyl)oxy)biphenyl-4-yl)methyl]-2-butyl-4-phenyl-1H-imidazol-5(4H)-one]	199 to 201
CCCCC1=NC2(CCCC2)C(=O)N1Cc1ccc(-c2cc(OC(C)(C)C(=O)O)ccc2Br)cc1 [Compound 12, 1-[(6′-bromo-3′-((1-carboxy-1,1-dimethylmethyl)oxy)biphenyl-4-yl)methyl]-2-butyl-4-spirocyclopentyl-1H-imidazol-5(4H)-one]	174 to 176
CCCCC1=NC2(CCCC2)C(=O)N1Cc1ccc(-c2ccc(CCC)c(OC(C)(C)C(=O)O)c2)cc1 [Compound 98, 2-butyl-1-[(3′-((1-carboxy-1,1-dimethylmethyl)oxy)-4′-propyl-biphenyl-4-yl)methyl]-4-spirocyclopentyl-1H-imidazol-5(4H)-one]	74
CCCCC1=NC2(CCCC2)C(=O)N1Cc1ccc(-c2cccc(OC(C)(C)C(=O)O)c2)cc1C [Compound 91]	160
CCCCC1=NC2(CCCCC2)C(=O)N1Cc1ccc(-c2cccc(OC(C(=O)O)C(C)C)c2)cc1 (stereo not drawn) [Compound 55, 2-butyl-1-[(3′-((1-carboxy-1-(1,1-dimethylmethyl)methyl)oxy)-biphenyl-4-yl)methyl]-4-spirocyclohexyl-1H-imidazol-5(4H)-one]	105
CCCCC1=NC2(CCCCC2)C(=O)N1Cc1ccc(-c2cccc(OC(C)C(=O)O)c2)c(C)c1 (stereo not drawn) [Compound 70, 2-butyl-1-[(3′-((1-carboxy-1-methylmethyl)oxy)-3-methyl-biphenyl-4-yl)methyl]-4-spirocyclohexyl-1H-imidazol-5(4H)one]	81
CCCCC1=NC2(CCCCC2)C(=O)N1Cc1ccc(-c2cccc(OC(CC)C(=O)O)c2)c(C)c1 (stereo not drawn) [Compound 71, 2-butyl-1-[(3′-((1-carboxy-1-ethylmethyl)oxy)-3-methyl-biphenyl-4-yl)methyl]-4-spirocyclohexyl-1H-imidazol-5(4H)one]	77
CCCCC1=NC2(CCCC2)C(=O)N1Cc1ccc(-c2cc(OCC(=O)O)ccc2CCC)cc1 [Compound 84, 2-butyl-1-[(3′-((1-carboxymethyl)oxy)-6′-propyl-biphenyl-4-yl)methyl]-4-spirocyclopentyl-1H-imidazol-5(4H)-one]	76
CCCCC1=NC(CC)(CC)C(=O)N1Cc1ccc(-c2cc(OC(C(=O)O)C(C)C)ccc2F)cc1 (stereo not drawn) [Compound 68, 2-butyl-1-[(3′-((1-carboxy-1-(1,1-dimethylmethyl)methyl)oxy)-6′-fluoro-biphenyl-4-yl)methyl]-4,4-diethyl-1H-imidazol-5(4H)one]	65
